Assay results as given in patent US10322995B2, “Substituted cyano cycloalkyl penta-2,4-dienes, cyano cycloalkyl pent-2-en-4-ynes, cyano heterocyclyl penta-2,4-dienes and cyano heterocyclyl pent-2-en-4-ynes as active substances against abiotic plant stress” (BAYER CROPSCIENCE AKTIENGESELLSCHAFT, priority 2014, dated 2019).

Experiments:
[1] = tested on: Triticum aestivum (TRZAS); test: In vivo analyses Part C: drought stress, appearance vs stressed control plants in categories (TRZAS); parameters: key: 0: no positive effect; 10: slight positive effect; 20: clear positive effect; 30: strong positive effect; settings: appearance vs stressed control plants after recovery phase, efficacy range of 3-4 pots
Method: Seeds of monocotyledonous and dicotyledonous crop plants were sown in sandy loam in plastic or wood-fibre pots, covered with soil or sand and cultivated in a greenhouse under good growth conditions. The test plants were treated at the early leaf stage (BBCH10-BBCH13). To assure uniform water supply before commencement of stress, the potted plants were supplied with water by dam irrigation prior to substance application. The inventive compounds were first formulated as wettable powders (WP) or dissolved in a solvent mixture. The further dilution was effected with water supplemented with 0.2% wetting agent (e.g. agrotin). The finished spray liquor was sprayed onto the green parts of the plant at an equivalent water application rate of 600 I/ha. Substance application was followed immediately by stress treatment of the plants. For this purpose, the wood-fibre pots were transferred in plastic inserts in order to prevent them from subsequently drying out too quickly. Drought stress was induced by gradual drying out under the following conditions: “Day”: 14 hours with illumination at 26-30° C. “Night”: 10 hours without illumination at 18-20° C. The duration of the respective stress phases was guided mainly by the condition of the stressed control plants. It was ended (by re-irrigating and transfer to a greenhouse with good growth conditions) as soon as irreversible damage was observed on the stressed control plants. The end of the stress phase was followed by an about 4-7-day recovery phase, during which the plants were once again kept under good growth conditions in a greenhouse. The duration of the recovery phase was guided mainly by when the trial plants had attained a state which enabled visual scoring of potential effects, and was therefore variable. Once this juncture had been reached, the appearance of the plants treated with test substances was recorded in comparison to the stressed control plants by the following categories: [table] For each substance and dosage, 3-4 pots were treated and evaluated. TRZAS=Triticum aestivum

[2] = biological target: T1, phosphatase ABI1 via the co-regulator RCAR11/PYR1 (Arabidopsis thaliana, UniProt O49686+P49597); test: In vitro assay: inhibition of the phosphatase ABI1 via the co-regulator RCAR11/PYR1, MUP dephosphorylation, fluorescence; assay type: biochemical; parameters: inhibition: dose or concentration left out as unconfirmed; settings: MUP dephosphorylation, fluorescence 460 nm; for ABI1 inhibition: concentration of 5 mM of the substance in a solution of DMSO and water; for inhibition: read-out: ABI1 inhibition
T1 sequence (O49686 1-191): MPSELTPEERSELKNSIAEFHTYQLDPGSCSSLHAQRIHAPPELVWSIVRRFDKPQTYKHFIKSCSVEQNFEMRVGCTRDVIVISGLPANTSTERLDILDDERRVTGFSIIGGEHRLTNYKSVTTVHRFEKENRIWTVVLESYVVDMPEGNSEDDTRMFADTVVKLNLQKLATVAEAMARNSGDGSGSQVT
T1 sequence (P49597 1-434): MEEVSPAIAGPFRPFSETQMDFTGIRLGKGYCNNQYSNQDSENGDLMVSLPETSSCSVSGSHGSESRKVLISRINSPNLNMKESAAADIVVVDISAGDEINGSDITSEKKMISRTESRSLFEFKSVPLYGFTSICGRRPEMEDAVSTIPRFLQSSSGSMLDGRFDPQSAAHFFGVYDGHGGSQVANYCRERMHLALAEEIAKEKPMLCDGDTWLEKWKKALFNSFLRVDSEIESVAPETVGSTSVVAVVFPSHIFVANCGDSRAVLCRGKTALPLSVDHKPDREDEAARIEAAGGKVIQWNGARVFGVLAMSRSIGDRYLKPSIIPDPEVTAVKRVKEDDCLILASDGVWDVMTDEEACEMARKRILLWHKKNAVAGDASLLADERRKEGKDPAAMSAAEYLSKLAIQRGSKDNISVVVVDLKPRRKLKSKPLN
From the text: Effects of the phytohormone abscisic acid (ABA) on the behaviour of plants under abiotic stress and the mechanism of action of ABA are described in the literature (cf. Abrams et al, WO97/23441, Cutler, Park et al. Science, 2009, 324, 1068; Grill et al. Science, 2009, 324, 1064; Tanokura et al. Biophysics, 2011, 7, 123; Schroeder et al. Plant J. 2010, 61, 290). Therefore, it is possible with the aid of a suitable in vitro test system to derive a correlation between the action of ABA and the stress response of a plant under abiotic stress. Under drought stress, plants form the phytohormone abscisic acid (ABA). This binds, along with a co-regulator (Regulatory Component of ABA-Receptor=RCAR according to Grill et al. Science, 2009, 324, 1064 or PYR/PYL according to Cutler et al. Science, 2009, 324, 1068), to a phosphatase (e.g. ABI1, a type 2C protein phosphatase, also abbreviated to PP2C) and inhibits its activity. As a result, a “downstream” kinase (e.g. SnRK2) is no longer dephosphorylated. This kinase, which is thus active, via phosphorylation of transcription factors (e.g. AREB/ABF, vgl. Yoshida et al., Plant J. 2010, 61, 672), switches on a genetic protection programme to increase drought stress tolerance.
The assay described hereinafter utilizes the inhibition of the phosphatase ABI1 via the co-regulator RCAR11/PYR1 aus Arabidopsis thaliana.
For the determination of activity, the dephosphorylation of 4-methylumbelliferyl phosphate (MUP) was measured at 460 nm. The in vitro assay was conducted in Greiner 384-well PS microplates F-well, using two controls: a) dimethyl sulphoxide (DMSO) 0.5% (f.c.) and b) 5 μM (f.c.) abscisic acid (ABA). […] The substance solution thus obtained, if necessary, was stirred with esterase from porcine liver (EC 3.1.1.1) at room temperature for 3 h and centrifuged at 4000 rpm for 30 min. A total volume of 45 μl was introduced into each cavity of the microplate, having the following composition: • 1) 5 μl of substance solution, i.e. a) DMSO 5% or b) abscisic acid solution or c) the corresponding example compound of the general formula (I) dissolved in 5% DMSO. • 2) 20 μl of enzyme buffer mix, composed of a) 40% by vol. of enzyme buffer (10 ml contain equal proportions by volume of 500 mM Tris-HCl pH8, 500 mM NaCl, 3.33 mM MnCl2, 40 mM dithiothreitol (DTT)), b) 4% by vol. of ABI1 dilution (protein stock solution was diluted so as to give, after addition, a final concentration in the assay of 0.15 μg ABI1/well), c) 4% by vol. of RCAR11 dilution (enzyme stock was diluted so as to give, on addition of the dilution to the enzyme buffer mix, a final concentration in the assay of 0.30 μg enzyme/well), d) 5% by vol. of Tween20 (1%), e) 47% by vol. H2O bi-dist. • 3) 20 μl of substrate mix, composed of a) 10% by vol. of 500 mM Tris-HCl pH8, b) 10% by vol. of 500 mM NaCl, c) 10% by vol. of 3.33 mM MnCl2, d) 5% by vol. of 25 mM MUP, 5% by vol. of Tween20 (1%), 60% by vol. of H2O bi-dist.
Enzyme buffer mix and substrate mix were made up 5 minutes prior to the addition and warmed to a temperature of 35° C. On completion of pipetting of all the solutions and on completion of mixing, the plate was incubated at 35° C. for 20 minutes. Finally, a relative fluorescence measurement was made at 35° C. with a BMG Labtech “POLARstar Optima” microplate reader using a 340/10 nm excitation filter and a 460 nm emission filter. The efficacy of the compounds of the general formula (I) is reported in the table which follows using abscisic acid (No. 64) as comparative substance according to the following classification: ++++ (inhibition≥90%), +++ (90%>inhibition≥70%), ++ (70%>inhibition≥50%), +(50%>inhibition≥30%).
Effects of selected compounds of the general formula (I) in the above-described in vitro assay at a concentration of 5 mM of the substance of the general formula (I) in question in a solution of DMSO and water: […]

[3] = tested on: Brassica napus (BRSNS); test: In vivo analyses Part B: drought stress, appearance vs stressed control plants in categories (BRSNS); parameters: key: 0: no positive effect; 10: slight positive effect; 20: clear positive effect; 30: strong positive effect; settings: category vs stressed control plants, 2-3 pots
Method: Seeds of monocotyledonous and dicotyledonous crop plants were sown in sandy loam in plastic pots, covered with soil or sand and cultivated in a greenhouse under good growth conditions. The test plants were treated at the early leaf stage (BBCH10-BBCH13). To assure uniform water supply before commencement of stress, the potted plants were supplied with water by dam irrigation prior to substance application. The inventive compounds, formulated in the form of wettable powders (WP), were sprayed onto the green parts of the plants as an aqueous suspension at an equivalent water application rate of 600 I/ha with addition of 0.2% wetting agent (e.g. agrotin). Substance application was followed immediately by stress treatment of the plants. Drought stress was induced by gradual drying out under the following conditions: “Day”: 14 hours with illumination at 26-30° C. “Night”: 10 hours without illumination at 18-20° C. The duration of the respective stress phases was guided mainly by the condition of the stressed control plants. It was ended (by re-irrigating and transfer to a greenhouse with good growth conditions) as soon as irreversible damage was observed on the stressed control plants. The end of the stress phase was followed by an about 4-7-day recovery phase, during which the plants were once again kept under good growth conditions in a greenhouse. The duration of the recovery phase was guided mainly by when the trial plants had attained a state which enabled visual scoring of potential effects, and was therefore variable. Once this juncture had been reached, the appearance of the plants treated with test substances was recorded in comparison to the stressed control plants by the following categories: [table] In order to rule out any influence on the effects observed by any fungicidal or insecticidal action of the test compounds, it was additionally ensured that the tests proceeded without fungal infection or insect infestation. For each substance and dosage, 2-3 pots were treated and evaluated. BRSNS=Brassica napus

ABI1 inhibition [2] | SMILES | Effect (TRZAS) ([1]; dosage 25 g/ha) | also measured
 | CC/C(C#CC(O)(C(C)C)C1(C#N)CC1)=C/C(=O)NC1CC1 (centres unmarked) [I.1-157, (2Z)-6-(1-Cyanocyclopropyl)-N-cyclopropyl-3-ethyl-6-hydroxy-7-methyloct-2-en-4-ynamide] | 10 | 
++++ (inhibition≥90%) | CCOC(=O)C=C(C)C#CC(O)(C(CC)CC)C1(C#N)CC1 (racemic) [I.1-732] | 10 | 
 | CCOC(=O)C=C(C#CC(O)(C1(C#N)CC1)C12CC3CC(CC(C3)C1)C2)C(F)(F)F (racemic) [I.1-753] | 10 | 
 | COC(=O)C=C(C#CC(O)(C1(C#N)CC1)C12CC3CC(CC(C3)C1)C2)C(F)(F)F (racemic) [I.1-752] | 10 | 
 | CCC(C#CC(O)(C1(C#N)CC1)C12CC3CC(CC(C3)C1)C2)=CC(=O)OC (racemic) [I.1-738] | 10 | 
 | COC(=O)/C=C(\C=C\C(O)(C(C)C)C1(C#N)CC1)C(F)(F)F (centres unmarked) [I.2-120, Methyl (2E,4E)-6-(1-cyanocyclopropyl)-6-hydroxy-7-methyl-3-(trifluoro-methyl)octa-2,4-dienoate] |  | inhibition [2]: > 90%; Effect (BRSNS) ([3]; spray application 250 g/ha): 30
 | CCOC(=O)/C=C(\C#CC(O)(c1ccc(F)cc1)C1(C#N)CC1)CC (centres unmarked) [I.1-503, Ethyl (2Z)-6-(1-cyanocyclopropyl)-3-ethyl-6-(4-fluorophenyl)-6-hydroxyhex-2-en-4-ynoate] |  | inhibition [2]: > 90%; Effect (BRSNS) ([3]; spray application 25 g/ha): 20-30
+++ (90%>inhibition≥70%) | COC(=O)/C=C(\C#CC(O)(C(C)C)C1(C#N)CC1)C(F)(F)F (centres unmarked) [I.1-120] |  | Effect (BRSNS) ([3]; spray application 250 g/ha): 20
 | CCOC(=O)C=C(C=CC(O)(C(C)C)C1(C#N)CC1)CC (racemic) [I.2-103] |  | Effect (TRZAS) ([1]; dosage 250 g/ha): 30
++++ (inhibition≥90%) | COC(=O)/C=C(\C#CC(O)(C1CCC1)C1(C#N)CC1)C(F)(F)F (centres unmarked) [I.1-662] | 10-20 | 
++++ (inhibition≥90%) | CCOC(=O)/C=C(/C)C#CC(O)(C1CCCCC1)C1(C#N)CC1 (centres unmarked) [I.1-702] |  | Effect (TRZAS) ([1]; dosage 250 g/ha): 10
 | CC/C(C#CC(O)(C(C)C)C1(C#N)CC1)=C/C(=O)OCCOC (centres unmarked) [I.1-606, 2-Methoxyethyl (2Z)-6-(1-cyanocyclopropyl)-3-ethyl-6-hydroxy-7-methyloct-2-en-4-ynoate] |  | inhibition [2]: > 90%; Effect (BRSNS) ([3]; spray application 250 g/ha): 20
 | CCOC(=O)C=C(C)C#CC(O)(C1(C#N)CC1)C12CC3CC(CC(C3)C1)C2 (racemic) [I.1-762] |  | Effect (TRZAS) ([1]; dosage 250 g/ha): 10
